These results are taken from publication PMC6711177, “Sorafenib-loaded hydroxyethyl starch-TG100-115 micelles for the treatment of liver cancer based on synergistic treatment” (Drug Delivery, 2019).

One data set is described as follows: in vivo. Details: species or system Sprague-Dawley rats. To be noted: rat, iv. As to the method: Sprague-Dawley rats were randomly divided into three groups and each group contains 6 rats. The prepared micelles solution was injected through femoral vein and the dose was 20 mg/kg (sorafenib) and 30 mg/kg (TG100-115). Free sorafenib and TG100-115 solutions were used as reference and the dose is same as the micelles group. After the end of administration, appropriate blood was obtained from the retro-orbital sinus at preselected time intervals (5, 10, 15, 30, 60 min, 2, 4, 6, 8, 12, 24, 48 and 72 h). Then, the blood was centrifuged at 3500 rpm for 10 min to acquire final plasma.
The plasma concentration of sorafenib and TG100-115 was measured using a validated HPLC-MS/MS method. The specific conditions are as follows: poroshell 120 poroshell-C18 column (50 mm × 4.6 mm, 2.7 μm, Agilent) was chosen as an analytical column, and the column temperature was 40 °C. The mobile phase comprised acetonitrile and 10 mmol/L ammonium acetate containing 0.1% formic acid, and the flow rate was 0.7 mL/min. Imatinib and naproxen were chosen as internal standard (IS) to improve the accuracy of the measurement. The ion ionization of sorafenib and imatinib was positive ion ionization, while TG100-115 and naproxen were negative ion ionization. The specific MS parameters of analytes were shown in S1 (Supplemental 1).
Plasma samples are processed according to the standard operating practices described below. Briefly, add 150.0 μL of plasma sample and 20.0 μL of the IS solution in a 2.0 mL EP tube. Then, the solution was vortexed for 1.0 min and added 300 μL of ice acetonitrile to precipitate protein. After vortexing for 1.0 min, the solution was centrifuged at 15000 rpm for 10 min. After that, 150 μL of supernatant was collected for quantitative analysis.

Data set [1] deals with Hep-3B-xenografted nude mouse model. As to the kind of experiment: In vivo anti-tumor activity and safety in Hep-3B-xenografted nude mouse model. To be noted: Hep-3B nude mouse, TG100-115 30 mg/kg and/or sorafenib 20 mg/kg; for IRT (tumor inhibition rate): versus normal saline. The protocol: The in vivo anti-tumor activity and safety of the prepared micelles was investigated by using Hep-3B-xenografted nude mouse model. The mice were randomly divided into six groups (n = 6) when the tumor volumes reached around 150 mm^3. The tumor-bearing mice were treated with non-targeted micelles solution, targeted micelle solution, TG100-115 solution, sorafenib solution, mixed sorafenib/TG100-115 solution and normal saline. […] The mice were sacrificed on day 28. Thereafter, the tumors were totally excised and precisely weighed. The tumor inhibitory rates were calculated using the formula: Tumor inhibition rate (%) = (Vblank −Vsample)/Vblank × 100%, Vblank, and Vsample represent the tumor volumes in the blank and test, reference group respectively.

Details of data set [2]: method as in Hsu et al., 2018; Wang et al., 2018. Conditions: checkpoint inhibitor alone only 20%, ref Hsu et al., 2018, Wang et al.; cited from earlier work.
Where [3] appears, read: twice a week for 4 weeks, day 28.

Regarding `CNC(=O)c1cc(Oc2ccc(NC(=O)Nc3ccc(Cl)c(C(F)(F)F)c3)cc2)ccn1` [Sorafenib], in “in vivo” (Sprague-Dawley, 20 mg/kg), the AUC(0-inf) (as a rule, the area under the concentration-time curve extrapolated to infinity) was 78.6 ± 20.6 ng·h/mL; the exposure AUC(0-t) (in general, exposure summed from dosing to a finite time, without extrapolation to infinity) was found to be 74.5 ± 18.7 ng·h/mL; the Cmax (usually the maximum level reached in the sampled fluid or tissue) stood at 17.3 ± 3.2 ng/mL; the Tmax – broadly, the time from dosing to the highest level – is 0.167 ± 0.073 h. Further, in “in vivo” (Sprague-Dawley, 20 mg/kg), the clearance (as a rule, a measure of how efficiently the substance is removed, as volume per time) was 423 mL/min/kg and the half-life (usually how long it takes for the measured level to halve) was 8.8 ± 1.4 h. Further, in data set [1] (setting [3]), the “Body weight Final” value is 34.2 g, the Tumor weight is reported as 2.48 ± 0.36 g and the “IRT (tumor inhibition rate)” value was 46.09%. Also, in data set [1] (before treatment), the “Body weight Initial” value is listed as 23.6 g.

As for `Nc1nc(N)c2nc(-c3cccc(O)c3)c(-c3cccc(O)c3)nc2n1` [TG100-115], the “CLz of TG100-115” value in the data set “in vivo” (30 mg/kg) worked out at 545 ± 91.7 mL/min/kg. Besides, in data set [2], the “efficiency of checkpoint inhibitor in the treatment of immune-tolerant mice when combined with TG100-115” value is given as 80%. In data set [1] (setting [3]), the Tumor weight is recorded as 2.72 ± 0.31 g and the “IRT (tumor inhibition rate)” value came out at 40.87%.
